Measurements as given in patent publication US20100286181A1, “PYRROLE DERIVATIVES WITH ANTIBACTERIAL ACTIVITY” (ASTRAZENECA AB, priority 2006, published 2010).

Each compound was assayed against GyrB ATPase activity (E. coli GyrA, E. coli GyrB) (Escherichia coli, UniProt P0AES6) (assay: GyrB ATPase inhibition activity assay (ammonium molybdate/malachite green phosphate detection)). Conditions: figure quoted may be an average of two or more results.
Type: biochemical
Protocol: Compounds may be tested for inhibition of GyrB ATPase activity using an ammonium molybdate/malachite green-based phosphate detection assay (Lanzetta, P. A., L. J. Alvarez, P. S. Reinach, and O. A. Candia, 1979, 100: 95-97). Assays can be performed in multiwell plates in 100 μl reactions containing: 50 mM HEPES buffer pH 7.5, 75 mM ammonium acetate, 5.5 mM magnesium chloride, 0.5 mM ethylenediaminetetraacetic acid, 5% glycerol, 1 mM 1,4-Dithio-DL-threitol, 200 nM bovine serum albumin, 5 μg/ml sheared salmon sperm DNA, 2.5 nM E. coli GyrA, 2.5 nM E. coli GyrB, 250 μM ATP, and compound in dimethylsulfoxide. Reactions can be quenched with 150 μl of ammonium molybdate/malachite green detection reagent containing 1.2 mM malachite green hydrochloride, 8.5 mM ammonium molybdate tetrahydrate, and 1 M hydrochloric acid.
Compounds of the Examples could be expected to have IC50 values of <200 μg/ml in one or both assays described herein above. For Example the following results were obtained in a GyrB ATPase inhibition activity assay substantially similar to the above wherein the figure quoted may be an average of two or more results

Point of comparison: `CO/N=C1\CN(c2ncc(C=O)s2)CCC1NC(=O)c1[nH]c(C)c(Cl)c1Cl` (stereo not shown) [Example 32, 3,4-Dichloro-N-[(3E)-1-(5-formyl-1,3-thiazol-2-yl)-3-(methoxyimino)piperidin-4-yl]-5-methyl-1H-pyrrole-2-carboxamide], IC50 59.3 nM. Against it:
- CO/N=C1\CN(c2nc(-c3ncnn3C)c(C(=O)O)s2)CCC1NC(=O)c1[nH]c(C)c(Cl)c1Cl (stereo not shown) [Example 25, 2-[(3E)-4-{[(3,4-Dichloro-5-methyl-1H-pyrrol-2-yl)carbonyl]amino}-3-(methoxyimino)piperidin-1-yl]-4-(1-methyl-1H-1,2,4-triazol-5-yl)-1,3-thiazole-5-carboxylic acid] — lower, < 9.77 nM
- CNC(=O)c1nc(N2CCC(NC(=O)c3[nH]c(C)c(Cl)c3Cl)/C(=N/OC)C2)sc1C(=O)O (stereo not shown) [Example 26, 2-[(3E)-4-{[(3,4-Dichloro-5-methyl-1H-pyrrol-2-yl)carbonyl]amino}-3-(methoxyimino)piperidin-1-yl]-4-[(methylamino)carbonyl]-1,3-thiazole-5-carboxylic acid] — lower, < 9.77 nM
- COCCn1ccnc1-c1nc(N2CCC(NC(=O)c3[nH]c(C)c(Cl)c3Cl)/C(=N/OC)C2)sc1C(=O)O (stereo not shown) [Example 27, 2-[(3E)-4-{[(3,4-Dichloro-5-methyl-1H-pyrrol-2-yl)carbonyl]amino}-3-(methoxyimino)piperidin-1-yl]-4-[1-(2-methoxyethyl)-1H-imidazol-2-yl]-1,3-thiazole-5-carboxylic acid] — not separable, < 63.5 nM
- COCn1ccnc1-c1nc(N2CCC(NC(=O)c3[nH]c(C)c(Cl)c3Cl)/C(=N/OC)C2)sc1C(=O)O (stereo not shown) [Example 28, 2-[(3E)-4-{[(3,4-Dichloro-5-methyl-1H-pyrrol-2-yl)carbonyl]amino}-3-(methoxyimino)piperidin-1-yl]-4-[1-(methoxymethyl)-1H-imidazol-2-yl]-1,3-thiazole-5-carboxylic acid] — lower, < 9.77 nM
- CO/N=C1\CN(c2nc(-c3ncc[nH]3)c(C(=O)O)s2)CCC1NC(=O)c1[nH]c(C)c(Cl)c1Cl (stereo not shown) [Example 29, 2-[(3E)-4-{[(3,4-Dichloro-5-methyl-1H-pyrrol-2-yl)carbonyl]amino}-3-(methoxyimino)piperidin-1-yl]-4-(1H-imidazol-2-yl)-1,3-thiazole-5-carboxylic acid] — lower, < 9.77 nM
- C=CCOC(=O)c1sc(N2CCC(NC(=O)c3[nH]c(C)c(Cl)c3Cl)/C(=N/OC)C2)nc1C(=O)NCCOC (stereo not shown) [Example 30, Allyl 2-[(3E)-4-{[(3,4-dichloro-5-methyl-1H-pyrrol-2-yl)carbonyl]amino}-3-(methoxyimino)piperidin-1-yl]-4-{[(2-methoxyethyl)amino]carbonyl}-1,3-thiazole-5-carboxylate] — within 1.5-fold, 86.1 nM
- CNC(=O)c1nc(N2CCC(NC(=O)c3[nH]c(C)c(Cl)c3Cl)/C(=N/OC)C2)sc1C(=O)OC (stereo not shown) [Example 31, Methyl 2-[(3E)-4-{[(3,4-dichloro-5-methyl-1H-pyrrol-2-yl)carbonyl]amino}-3-(methoxyimino)piperidin-1-yl]-4-[(methylamino)carbonyl]-1,3-thiazole-5-carboxylate] — within 1.5-fold, 49.4 nM
- CCOC(=O)c1sc(N2CCC(NC(=O)c3[nH]c(C)c(Cl)c3Cl)/C(=N/OC)C2)nc1C(=O)NCCOC (stereo not shown) [Example 33, Ethyl 2-[(3E)-4-{[(3,4-dichloro-5-methyl-1H-pyrrol-2-yl)carbonyl]amino}-3-(methoxyimino)piperidin-1-yl]-4-{[(2-methoxyethyl)amino]carbonyl}-1,3-thiazole-5-carboxylate] — 1.6-fold lower, 36.9 nM
- CO/N=C1\CN(c2nc(-c3ncnn3C)c(C(=O)OC)s2)CCC1NC(=O)c1[nH]c(C)c(Cl)c1Cl (stereo not shown) [Example 34, Methyl 2-[(3E)-4-{[(3,4-dichloro-5-methyl-1H-pyrrol-2-yl)carbonyl]amino}-3-(methoxyimino)piperidin-1-yl]-4-(1-methyl-1H-1,2,4-triazol-5-yl)-1,3-thiazole-5-carboxylate] — within 1.5-fold, 66.8 nM
